Tested on: histone modifications in MCF-7 cells
Assay: Histone modification analysis by bottom-up LC-MS/MS
Type: cell-based
Details: for Average ratio, H2A1_12_17 unmod (AKAKTR): peptide H2A1_12_17 unmod; for Average ratio, H2A1_12_17 unmod (AKAKTR) / Average ratio, H2A3_12_17 K15me1 (AKAKSR) / Ratio, H2A1_12_17 unmod / Ratio, H2A3_12_17 K15me1: MCF-7; for Average ratio, H2A1_12_17 unmod (AKAKTR) / Average ratio, H2A3_12_17 K15me1 (AKAKSR): average of 3 replicates; for Average ratio, H2A3_12_17 K15me1 (AKAKSR): peptide H2A3_12_17 K15me1
From the text: In this approach. […] Histones are then extracted from cell pellets and chemically derivatized with propionic anhydride, digested with trypsin, subjected to a second round of propionylation, and analyzed by LC-MS/MS. Measuring the relative intensity of modified versus unmodified forms of individual histone peptides enables simultaneous monitoring of multiple potential biomarkers of MYST inhibition. To minimize false positives, we focused on abundant and reproducible modifications (average stoichiometry of greater than 1% across triplicate samples, standard deviation less than or equal to the average measurement). To account for potential histone modification crosstalk, changes in both acetylated and methylated peptides were evaluated. 38 modified peptides passed this reproducible detection threshold including several established KAT biomarkers[41] including H3K9Ac (KAT2A/B), H3K18Ac (KAT3A/B), H3K14Ac (KAT7), H3K23Ac (KAT6A/B), H4K16Ac (KAT8), and H2A.ZK4/K7Ac (KAT5; Fig. 4B).
Histone modification analysis
MCF-7 cells were cultured at 37 °C under 5% CO2 in EMEM (Quality Biological, 112-016-101) with 0.01 mg/mL human recombinant insulin (Sigma Aldrich, 91077C), 2 mM L-glutamine (Quality Biological, 118- […]
human recombinant insulin.
1119, WM-3835). Following 24 h inhibitor treatment, cells were washed with ice-cold 1× PBS and scraped in 150 µL of Nuclear Isolation Buffer (NIB) containing 0.1% NP-40 for histone extraction using a modified protocol from the Garcia laboratory. 9 Briefly, cell suspensions were incubated on ice for 5 minutes, and […]
nuclei were pelleted by centrifugation (600 rcf, 4°C, 5 min). Pelleted nuclei were washed twice with 150 μL of detergent-free NIB buffer, followed by centrifugation (600 rcf, 4°C, 5 min) to remove all detergent.
Nuclei were then resuspended in 400 μL of 0.4 N H₂SO₄ and rotated at 4°C overnight for acid extraction of histones. The following day, samples were centrifuged (11,000 rcf, 4°C, 10 min) and the histone-containing supernatant was transferred to a fresh tube. Trichloroacetic acid (100% TCA) was added to achieve a final concentration of 20% (v/v), tubes were inverted once to mix, and histone precipitation was performed on ice for at least 3 hours or overnight at 4°C. Precipitated histones were collected by centrifugation (11,000 rcf, 4°C, 10 min) and the supernatant carefully removed, leaving a visible film of histones on the tube wall or bottom. Histone pellets were subjected to sequential washes with 1 mL of ice-cold acidified acetone (0.1% 12 N HCl) followed by 1 mL of 100% ice-cold acetone, with centrifugation (11,000 rcf, 4°C, 5 min) after each wash. Samples were air-dried at room temperature, resuspended in 40 µL of ddH₂O, and protein […]
analysis, 1-2 µg of purified histones were loaded per lane and processed according to the general immunoblotting protocol described in General Materials and Methods.
Analysis of histone modifications by LC-MS/MS
Preparation of histone samples for LC-MS/MS was performed analogously to the procedure for immunoblotting above, with the following modifications. MCF7 cells (4.2 × 106) were seeded in 15 cm dishes and treated with PF-9363 or vehicle. Experiments were performed in triplicate. Following treatment and PBS washing, cells were scraped and collected in 15 mL falcon tubes, pelleted (500 rcf, 4°C, 5 min), resuspended in 1 mL cold PBS, transferred to microcentrifuge tubes, and pelleted again before flash-freezing in liquid nitrogen for storage at -80°C. For extraction, cell pellets (~100 μL) were resuspended in NIB buffer at a 1:10 ratio, and cells were lysed with NIB buffer containing 0.2% NP-40 for 8 minutes on ice. Nuclei were pelleted at 1,000 rcf for 8 minutes and washed three times with 500 μL detergent-free NIB buffer. Histones were extracted using 800 μL of 0.2 M H₂SO₄, and after centrifugation (3,400 rcf, 4°C, 10

For COc1cccc(OC)c1S(=O)(=O)Nc1noc2cc(Cn3cccn3)cc(OC)c12 [PF-9363], the “Average ratio, H2A1_1_11 K5ac” value (PF-9363 (0.1 mM)) was 0.8521, the “Average ratio, H2A1_4_11 K5ac” value (PF-9363 (0.1 mM)) was 0.0421 and the “Average ratio, H2A1_4_11 K9ac” value (PF-9363 (0.1 mM)) was 0.0404. The “Average ratio, H2A1_4_11 unmod” value (PF-9363 (0.1 mM)) was 0.9065, the “Average ratio, H2A1_36_42 unmod” value (PF-9363 (0.1 mM)) was 0.9991 and the “Average ratio, H2A3_36_42 unmod” value (PF-9363 (0.1 mM)) was 1.0000. The “Average ratio, H2AJ_4_11 K5acK9ac” value (PF-9363 (0.1 mM)) was 0.8702, the “Average ratio, H2AV_1_19 K4ac” value (PF-9363 (0.1 mM)) was 0.0404 and the “Average ratio, H2AV_1_19 unmod” value (PF-9363 (0.1 mM)) was 0.8917. For the same compound, the “Average ratio, H2AX_36_42 unmod” value (PF-9363 (0.1 mM)) was 1.0000, the “Average ratio, H2AZ_1_19 K11ac” value (PF-9363 (0.1 mM)) was 0.0091 and the “Average ratio, H2AZ_1_19 unmod” value (PF-9363 (0.1 mM)) was 0.8729. The “Average ratio, H3_73_83 K79me1” value (PF-9363 (0.1 mM)) was 0.0887, the “Average ratio, H3_73_83 K79me2” value (PF-9363 (0.1 mM)) was 0.0735 and the “Average ratio, H3_73_83 unmod” value (PF-9363 (0.1 mM)) was 0.8364. The “Average ratio, H4_4_17 K12acK16ac” value (PF-9363 (0.1 mM)) was 0.0092, the “Average ratio, H4_4_17 unmod” value (PF-9363 (0.1 mM)) was 0.6321 and the “Average ratio, H4_20_23 K20me1” value (PF-9363 (0.1 mM)) was 0.0308. The “Average ratio, H4_20_23 unmod” value (PF-9363 (0.1 mM)) was 0.0293, the “Average ratio, H2A1_12_17 unmod (AKAKTR)” value (PF-9363 (0.1 mM)) was 0.4892 and the “Average ratio, H2A3_12_17 K15me1 (AKAKSR)” value (PF-9363 (0.1 mM)) was 0.4715. For the same compound, the “Average ratio, H2A1_1_11 K5ac” value (PF-9363 (30 mM)) was 0.8566, the “Average ratio, H2A1_4_11 K5ac” value (PF-9363 (30 mM)) was 0.0480 and the “Average ratio, H2A1_4_11 K9ac” value (PF-9363 (30 mM)) was 0.0347. For the same compound, the “Average ratio, H2A1_4_11 unmod” value (PF-9363 (30 mM)) was 0.9114, the “Average ratio, H2A1_36_42 unmod” value (PF-9363 (30 mM)) was 0.9988 and the “Average ratio, H2A3_36_42 unmod” value (PF-9363 (30 mM)) was 1.0000. For the same compound, the “Average ratio, H2AJ_4_11 K5acK9ac” value (PF-9363 (30 mM)) was 0.8922, the “Average ratio, H2AV_1_19 K4ac” value (PF-9363 (30 mM)) was 0.0413 and the “Average ratio, H2AV_1_19 unmod” value (PF-9363 (30 mM)) was 0.7807. For the same compound, the “Average ratio, H2AX_4_11 unmod” value (PF-9363 (30 mM)) was 0.3301, the “Average ratio, H2AX_36_42 unmod” value (PF-9363 (30 mM)) was 1.0000 and the “Average ratio, H2AZ_1_19 K11ac” value (PF-9363 (30 mM)) was 0.0141. The “Average ratio, H2AZ_1_19 unmod” value (PF-9363 (30 mM)) was 0.9481, the “Average ratio, H3_73_83 K79me1” value (PF-9363 (30 mM)) was 0.0821 and the “Average ratio, H3_73_83 K79me2” value (PF-9363 (30 mM)) was 0.0558. The “Average ratio, H3_73_83 unmod” value (PF-9363 (30 mM)) was 0.8605, the “Average ratio, H4_4_17 K12acK16ac” value (PF-9363 (30 mM)) was 0.1819 and the “Average ratio, H4_4_17 unmod” value (PF-9363 (30 mM)) was 0.4341. The “Average ratio, H4_20_23 K20me1” value (PF-9363 (30 mM)) was 0.0237, the “Average ratio, H4_20_23 unmod” value (PF-9363 (30 mM)) was 0.0213 and the “Average ratio, H2A1_12_17 unmod (AKAKTR)” value (PF-9363 (30 mM)) was 0.5017. The “Average ratio, H2A3_12_17 K15me1 (AKAKSR)” value (PF-9363 (30 mM)) was 0.4920, the “Ratio, H2A1_12_17 unmod” value (Replicate 1, PF-9363 0.1) was 0.4969 and the “Ratio, H2A3_12_17 K15me1” value (Replicate 1, PF-9363 0.1) was 0.4799. For the same compound, the “Ratio, H2A1_12_17 unmod” value (Replicate 1, PF-9363 1) was 0.5198, the “Ratio, H2A3_12_17 K15me1” value (Replicate 1, PF-9363 1) was 0.5023 and the “Ratio, H2A1_12_17 unmod” value (Replicate 1, PF-9363 10) was 0.4982. For the same compound, the “Ratio, H2A3_12_17 K15me1” value (Replicate 1, PF-9363 10) was 0.4848, the “Ratio, H2A1_12_17 unmod” value (Replicate 1, PF-9363 30) was 0.5053 and the “Ratio, H2A3_12_17 K15me1” value (Replicate 1, PF-9363 30) was 0.497. The “Ratio, H2A1_12_17 unmod” value (Replicate 2, PF-9363 0.1) was 0.484, the “Ratio, H2A3_12_17 K15me1” value (Replicate 2, PF-9363 0.1) was 0.4685 and the “Ratio, H2A1_12_17 unmod” value (Replicate 2, PF-9363 1) was 0.4972. The “Ratio, H2A3_12_17 K15me1” value (Replicate 2, PF-9363 1) was 0.4788, the “Ratio, H2A1_12_17 unmod” value (Replicate 2, PF-9363 10) was 0.498 and the “Ratio, H2A3_12_17 K15me1” value (Replicate 2, PF-9363 10) was 0.4832.

— doi:10.1101/2025.04.25.650653, “Hierarchical small molecule inhibition of MYST acetyltransferases” (bioRxiv, 2025)
